Entries after “also recorded” stand apart in the source; their conditions may differ. Counter-ions that a name gives are not always drawn.
Legend:
[1] = in words; cited from earlier work
[2] = test system: hard fouling (barnacles, serpulids, spirorbids); assay: Field testing of coated rods; type: in vivo; design: Total hard fouling, difference in mean cover (%), drug vs control / Barnacles, difference in mean cover (%), drug vs control: tested at 25 µg/ml of coating; Serpulids, difference in mean cover (%), drug vs control: tested at 25 µg/ml of coating mix; settings: for Overall performance in field assay: crude rank, best (1) to worst (8); for Barnacles, difference in mean cover (%), drug vs VC50 / Serpulids, difference in mean cover (%), drug vs VC50 / Spirorbids, difference in mean cover (%), drug vs VC50 / Total hard fouling, difference in mean cover (%), drug vs VC50: drug + VC50 rods vs VC50 control; for Barnacles, difference in mean cover (%), drug vs control / Serpulids, difference in mean cover (%), drug vs control / Spirorbids, difference in mean cover (%), drug vs control / Total hard fouling, difference in mean cover (%), drug vs control: drug + VC50 rods vs uncoated blank control; for Barnacles Mean cover (%) / Serpulids Mean cover (%) / Spirorbids Mean cover (%) / Total hard fouling Mean cover (%): rods coated with drug + VC50, field test; for Total hard fouling Mean cover (%): percentage cover within 6 mm×50 mm transect
Protocol: Fouling on rods occurs more rapidly than on flat panels, enabling rapid assessment of the performance of coatings.
6 mm diameter glass rods were cut to 150 mm length and prepared prior to coating by baking in a furnace at 150° C. for 24 hours and then cooling in a dessicator.
All pharmaceuticals were obtained in commercially available form. All tablets were reduced to fine powder with a mortar and pestle, and capsules were opened to extract the contents. The amount of drug powder required to attain the desired concentrations for all tests was calculated from product dosage information and then measured by weight on a high-resolution electronic balance. This was added to the coating and mixed thoroughly prior to application to obtain the concentration of 25 ug active ingredient per ml of coating mix.
The commercial antifouling product used to benchmark field experiments was VC Offshore with Teflon® manufactured by International Coatings.
For our experiments, a reduced copper coating (“VC50”) was prepared by mixing approximately 20 g of #YBA779 into 100 ml of #YBA707. The prepared coating was then allowed to stand so that bubbles from the mixing process dissipated. 15 ml centrifuge tubes were filled with 10 mls of prepared coating. Prepared glass rods were then immersed in the coating to a height of 100 mm and then suspended on a frame to air dry until coating cured.
Five replicate rods were tested for every experimental treatment, including controls. Two sets of controls were used, an uncoated blank control and a VC50 control without pharmaceutical additives. Rod were randomly arrayed on plastic vexar mesh attached to PVC frames and suspended at a depth of 10 cm from the water surface. […] Rods were examined visually weekly for the duration of testing, which typically lasts between 6 to 10 weeks. All fouling was scored as percentage cover of each category within a 6 mm×50 mm transect on each rod.

[3] = test system: marine bacteria (ten strains); assay: Bio-adhesion assay (crystal violet microplate); type: cell-based, marine bacteria isolated from Singapore fouling communities; settings: for Effect of drugs on adhesion of bacteria: 50 μl of 125 μg ml^−1 drug + 200 μl bacteria, 2 hours
Protocol: The effect of pharmaceuticals on bacterial adhesion was analyzed using a modified microplate method adapted from Shea and Williamson (1990). This method consists of staining the attached bacteria with crystal violet, releasing the stain with sodium desoxycholate, and measuring the resulting absorbance of the crystal violet. The absorbance is proportional to the degree of bacterial adhesion to the surface.
Ten strains of bacteria (strain numbers 1, 4, 9, 14, 18, 20, 27, 28, 29 and 30) were chosen for this study. Flat bottom non-tissue culture treated polystyrene (hydrophobic, Falcon #351172) (referred to as polystyrene) and flat bottom tissue culture treated polystyrene (hydrophilic, Falcon #353072) microplates were used in the analyses. These two types of plates were chosen because they were sterile and offered two different kinds of surfaces to determine the adhesion preferences of the bacteria. Each test was done in duplicate. For the control and blank wells, 50 μl of sterile deionized water were added. For those wells that were to contain drugs, 50 μl of drugs at concentration of 125 μg ml^−1 were added. Then 200 μl of bacteria suspension in sterile seawater, whose absorbance had been adjusted to 0.6 at 600 nm using a spectrophotometer (Beckman), were added. Blanks contained 200 μl of sterile seawater.
The bacteria in suspension were allowed to attach for 2 hours at 28° C. Unattached cells were removed by pipetting out almost all trace of liquid and rinsed three times with 300 μl of sterile seawater each time. The attached cells were stained with 200 μl of crystal violet solution (0.1% w/v) in each well for 5 min. After removing the stain by pipetting, the wells were rinsed twice with 300 μl of sterile deionized water each time. Sodium desoxycholate (200 μl) solution (2% w/v) was then added to each well to extract the crystal violet from the stained cells for 10 min. The absorbance of the extracted solution was read at 590 nm using a microplate reader (Sunrise, Tecan, Switzerland).
The data were analyzed using T-test (Two-sample assuming unequal variances) to determine the significance of the absorbance values of each bacterial strain versus the blanks to determine whether there was adhesion, i.e. increase in absorbance. Each drug effect on adhesion was analyzed by comparing the absorbance of each bacterial strain minus the control blank versus bacteria in presence of drug minus the drug control. When the data is significant, there are bacterial cells attached to the surface in the control but in the presence of drugs, there is no attachment.

[4] = test system: Balanus amphitrite cyprids; assay: whole plant or invertebrate; settings: for Prevention of settlement of barnacle cyprids: crude rank, best (1) to worst (8)
Protocol: Pharmaceuticals from the respective manufacturers were treated in the following way. A pill containing a known amount of active ingredient (as stated in product information) was ground in a mortar and pestle and a suspension of 2 mg ml^−1 generated in de-ionized water. This stock solution is stored at −20° C. in 4 ml amber screw cap vials. For the bioassays, 250 ul of stock solution is added to 10 ml of 1 um filtered seawater. This suspension was then sonicated for 10 minutes. Serial dilutions of this 50 μg ml^−1 seawater solution, or suspension, with seawater was done to generate the required range of concentrations.
This method is now standard practice for many antifouling screening of novel compounds.
Barnacle larvae from field-collected adults were reared on an algal mixture of 1:2:2 v/v of Rhodomonas salina, Tetraselmis suecica and Chaetoceros muelleri at 25° C., at approximately 5×10^5 cells per ml density. On this regime, larvae metamorphose to cyprids in 5 days.
Test solutions were made up to twice the required final concentration. 1 ml of test solution was added into each well, and cyprids were transferred into each well in 1 ml of seawater. Assays were done in triplicate. After 24 hours, larvae that had attached and metamorphosed were enumerated and the result expressed as percentage settlement. Larvae not attached were scored as not settled.
The Therapeutic Ratio, or LC50/EC50, is a way of assessing the effectiveness of the compound in relation to its toxicity. […] LC50 and EC50 estimates and the therapeutic ratio should be considered as working values providing an estimation of potency, rather than as absolutes.

[5] = drug at 25 ug per ml of VC50 coating
[6] = strain 4 (Bacillus), hydrophobic surface (untreated polystyrene)
[7] = strain 9 (Bacillus), hydrophobic surface (untreated polystyrene)
[8] = strain 20, hydrophobic surface (untreated polystyrene)
[9] = strain 27, hydrophobic surface (untreated polystyrene)
[10] = strain 28, hydrophobic surface (untreated polystyrene)
[11] = strain 30, hydrophilic surface (tissue culture treated polystyrene)

SMILES | Solubility [1] | Performance against spirorbid polychaetes ([2]; coated rods, in words) | Overall performance in field assay [2] | Barnacles, difference in mean cover (%), drug vs VC50 [2] [%] | Serpulids, difference in mean cover (%), drug vs VC50 [2] | Spirorbids, difference in mean cover (%), drug vs VC50 [2] | Total hard fouling, difference in mean cover (%), drug vs VC50 [2] [%] | Barnacles, difference in mean cover (%), drug vs control [2] [%] | Serpulids, difference in mean cover (%), drug vs control [2] [%] | Spirorbids, difference in mean cover (%), drug vs control [2] | Total hard fouling, difference in mean cover (%), drug vs control [2] [%] | Barnacles Mean cover (%) [2] [%] | Serpulids Mean cover (%) [2] [%] | Spirorbids Mean cover (%) [2] [%] | Total hard fouling Mean cover (%) [2] [%] | Effect of drugs on adhesion of bacteria [3, 6] | Effect of drugs on adhesion of bacteria [3, 7] | Effect of drugs on adhesion of bacteria [3, 8] | Effect of drugs on adhesion of bacteria [3, 9] | Effect of drugs on adhesion of bacteria [3, 10] | further results
Cc1nccn1CC1CCc2c(c3ccccc3n2C)C1=O (centres unmarked) [ZFN, ondansetron hydrochloride] | soluble in saline and water | exclude spirorbid settlement | 2 | −26.33 | 0% | −18.66% | −45 | -89.3 | −1.66 | +3% | −88 | 3.67 | 1.67 | 4.67 | 10 | ** (** p < 0.01) | *** (*** p < 0.005) | ** (** p < 0.01) | *** (*** p < 0.005) | *** (*** p < 0.005) | Total hard fouling, mean cover ([2]; coated rods, 25 ug active ingredient per ml of VC50 coating): 10%; Less spirorbid cover than VC50 [2, 5]: 18.7%; Reduction in barnacle cover compared to VC50 [2, 5]: 26.3%; Effect of addition of drug on antifouling performance of VC50 coating (total hard fouling) ([2]; drug at 25 ug per ml of VC50 coating, in words, hydrochloride): increased the antifouling properties of VC50 coating significantly; also recorded: significantly improved the performance of VC50 coating; Effect on bacterial adhesion ([3]; polystyrene or tissue culture surface as named in the value, hydrochloride): prevented biofilm formation for almost all strains in the polystyrene surface; also recorded: increased cell adhesion in the tissue culture surface for strain 30; Effect of drugs on adhesion of bacteria ([3]; strain 14 (Vibrio), hydrophobic surface (untreated polystyrene)): * (Significantly less adhesion observed: * p < 0.05); Effect of drugs on adhesion of bacteria ([3]; strain 18 (Microbacterium), hydrophobic surface (untreated polystyrene)): * (Significantly less adhesion observed: * p < 0.05); Effect of drugs on adhesion of bacteria ([3]; strain 29, hydrophobic surface (untreated polystyrene)): * (Significantly less adhesion observed: * p < 0.05); Effect of drugs on adhesion of bacteria [3, 11]: * (Significantly less adhesion observed: * p < 0.05); Effect of drugs on adhesion of bacteria ([3]; strain 30, hydrophobic surface (untreated polystyrene)): * (Significantly less adhesion observed: * p < 0.05); IC50 ([4]; Amphibalanus amphitrite, 24 h, read-out: ED50): 0.242 µg/mL; Prevention of settlement of barnacle cyprids [4]: 5
CN[C@H]1CC[C@@H](c2ccc(Cl)c(Cl)c2)c2ccccc21.Cl [ZLT, sertraline hydrochloride] | slightly soluble in water | higher cover of serpulid and spirorbid polychaetes compared to VC50 alone | 8 | −11.67 | +1.66% | +6.67% | −3.33 | −74.67 | 0 | +28.33% | −46.33 | 18.33 | 3.33 | 30 | 51.67 | *** (*** p < 0.005) | * (Significantly less adhesion observed: * p < 0.05) | *** (*** p < 0.005) | *** (*** p < 0.005) | *** (*** p < 0.005) | Performance against serpulid polychaetes ([2]; coated rods, in words): higher cover of serpulid and spirorbid polychaetes compared to VC50 alone; Reduction of total hard fouling cover compared to VC50 alone [2, 5]: 3.3%; Effect of addition of drug on antifouling performance of VC50 coating (total hard fouling) ([2]; drug at 25 ug per ml of VC50 coating, in words): did not significantly improve the antifouling performance of VC50; Effect of drugs on adhesion of bacteria ([3]; strain 1 (Rhodovulum), hydrophobic surface (untreated polystyrene)): *** (*** p < 0.005); Effect of drugs on adhesion of bacteria [3, 11]: *** (*** p < 0.005); ED50 ([4]; barnacle cyprids, 24 hours, concentration that caused 50% settlement inhibition): 0.50185 µg/mL; Prevention of settlement of barnacle cyprids [4]: 6
